Test results as given in patent publication EP2928504B1, “PROTEIN-POLYMER-DRUG CONJUGATES” (Mersana Therapeutics, Inc., priority 2012, dated 2014).
Read-outs that look alike come from different tables or passages of the source.

Legend:
Experiment in all cases: Cell viability assay (Cell Titer-Glo)
Type in all cases: cell-based
[1] = tested on: NCI-N87
Procedure: (§1) PBRM-drug polymer conjugates were evaluated for their tumor viability using Cell Titer-Glo (Promega Corp). Cells were plated in black walled 96-well plate and allowed to adhere overnight at 37°C in a humidified atmosphere of 5% CO2. HER2 expressing cells SKBR3, BT474, NCI-N87 and cells expressing low levels of HER2-MCF7 were plated at a density of 5,000 cells per well. The next day the medium was replaced with 50 µL fresh medium and 50 µL of 2x stocks of PBRM-drug polymer conjugate, drug polymer conjugate or drug were added to appropriate wells, mixed and incubated for 72 h. Cell Titer-Glo reagent was added to the wells at room temperature and the luminescent signal was measured after 10 min using a SpectraMax M5 plate reader (Molecular Devices). Dose response curves were generated using SoftMax Pro software. IC50 values were determined from four-parameter curve fitting.

[2] = tested on: BT474; conditions: Homo sapiens, BT-474, 72 h
Procedure: as §1

[3] = tested on: SKBR3; conditions: Homo sapiens, SK-BR-3, 72 h
Procedure: as §1

[4] = tested on: MCF7
Procedure: as §1

[5] = tested on: HCT15
[6] = Homo sapiens, NCI-N87, 72 h, Table VIII, drug compounds, read-out: N87 IC50
[7] = Table VIII, drug compounds, read-out: BT474 IC50
[8] = Table VIII, drug compounds, read-out: SKBR3 IC50
[9] = Homo sapiens, MCF7, 72 h, Table VIII, drug compounds, read-out: MCF7 IC50
[10] = Homo sapiens, HCT-15, 72 h, Table VIII, drug compounds, read-out: HCT15 IC50

SMILES	IC50 [1, 6] [nM]	IC50 [2, 7] [nM]	IC50 [3, 8] [nM]	IC50 [4, 9] [nM]	IC50 [5, 10] [nM]	further results
COc1cc2cc(C(=O)N3C[C@@H](CCl)c4c3cc(OC(=O)[C@@H](N)C(C)C)c3ccccc43)[nH]c2c(OC)c1OC	0.96	3.47	0.95	–	–	–
CCC(C)C(C(CC(=O)N1CCCC1C(OC)C(C)C(=O)NC(Cc1ccccc1)C(=O)NCC(C)O)OC)N(C)C(=O)C(NC(=O)C(C(C)C)N(C)C)C(C)C (stereo not shown) [drawing 771]	0.69	1.27	0.44	1.88	31.8	–
CCCO[C@H](C[C@H](C(C)C)N(CCC)C(=O)[C@@H](NC(=O)[C@H]1CCCCN1C)[C@@H](C)CC)c1nc(C(=O)N[C@@H](Cc2ccc(OC(=O)NCCCCN)cc2)C[C@H](C)C(=O)O)cs1	0.24	0.1	0.08	0.68	4.6	–
COc1cc2cc(C(=O)N3C[C@@H](CCl)c4c3cc(OC(=O)N(C)CCO)c3ccccc43)[nH]c2c(OC)c1OC	30	68	21.5	100	100	–
COc1cc2cc(C(=O)N3C[C@@H](CCl)c4c3cc(OC(=O)[C@@H]3CCCN3)c3ccccc43)[nH]c2c(OC)c1OC	0.93	4.55	1.34	–	1.53	–
CCCO[C@H](C[C@H](C(C)C)N(CCC)C(=O)[C@@H](NC(=O)[C@H]1CCCCN1C)[C@@H](C)CC)c1nc(C(=O)N[C@@H](Cc2ccc(O)cc2)C[C@H](C)C(=O)O)cs1 [drawing 786 (R43 = H, R78 = -OH)]	0.1	0.04	0.06	–	0.29	–
COc1cc2cc(C(=O)N3C[C@@H](CCl)c4c3cc(OC(=O)N3CCN(CCN)CC3)c3ccccc43)[nH]c2c(OC)c1OC	–	–	–	–	–	IC50 ([4]; Homo sapiens, MCF7, 72 h, read-out: MCF7 IC50, Table VIII, drug compounds): 100 nM; IC50 ([5]; Homo sapiens, HCT-15, 72 h, read-out: HCT15 IC50, Table VIII, drug compounds): 68 nM; IC50 ([1]; Homo sapiens, NCI-N87, 72 h, read-out: N87 IC50, Table VIII, drug compounds): 77 nM; IC50 ([2]; read-out: BT474 IC50, Table VIII, drug compounds): 100 nM; IC50 ([3]; read-out: SKBR3 IC50, Table VIII, drug compounds): 100 nM
CCC(C)C(C(CC(=O)N1CCCC1C(OC)C(C)C(=O)NC(Cc1ccccc1)C(N)=O)OC)N(C)C(=O)C(NC(=O)C(C(C)C)N(C)C)C(C)C (stereo not shown) [drawing 765 (R40 = H)]	–	–	0.32	1.78	–	–
COc1cc2cc(C(=O)N3C[C@@H](CCl)c4c3cc(OC(=O)CCN)c3ccccc43)[nH]c2c(OC)c1OC	–	6.54	2.07	1.4	2.5	–
CCCO[C@H](C[C@H](C(C)C)N(CCC)C(=O)[C@@H](NC(=O)[C@H]1CCCCN1C)[C@@H](C)CC)c1nc(C(=O)N[C@@H](Cc2ccc(O)cc2)C[C@H](C)C(N)=O)cs1 [drawing 786 (R43 = H, R78 = -NH2)]	3.2	1.35	1.6	3.3	–	–
CCC(C)C(C(CC(=O)N1CCCC1C(OC)C(C)C(=O)NC(Cc1ccccc1)C(=O)NCCCOC(=O)C1CCCN1)OC)N(C)C(=O)C(NC(=O)C(C(C)C)N(C)C)C(C)C (stereo not shown)	1.51	3.5	0.88	3.3	85.7	–
CCC(C)C(C(CC(=O)N1CCCC1C(OC)C(C)C(=O)NC(Cc1ccccc1)C(=O)NCCN)OC)N(C)C(=O)C(NC(=O)C(C(C)C)N(C)C)C(C)C (stereo not shown)	0.89	–	–	–	–	–
CCC(C)C(C(CC(=O)N1CCCC1C(OC)C(C)C(=O)NC(Cc1ccccc1)C(=O)NO)OC)N(C)C(=O)C(NC(=O)C(C(C)C)N(C)C)C(C)C (stereo not shown) [drawing 765 (R40 = -OH)]	–	20.6	12	39	–	–
CCCO[C@H](C[C@H](C(C)C)N(CCC)C(=O)[C@@H](NC(=O)[C@H]1CCCCN1C)[C@@H](C)CC)c1nc(C(=O)N[C@@H](Cc2ccc(O)cc2)C[C@H](C)C(=O)OC)cs1 [drawing 786 (R43 = H, R78 = -OCH3)]	–	–	0.71	3.02	–	–
CCC(C)C(C(CC(=O)N1CCCC1C(OC)C(C)C(=O)NC(C)C(O)c1ccccc1)OC)N(C)C(=O)C(NC(=O)C(C(C)C)N(C)C)C(C)C (stereo not shown) [drawing 777 (R90 = -H)]	0.24	–	–	–	10.1	–
COc1cc2cc(C(=O)N3C[C@@H](CCl)c4c3cc(O)c3ccccc43)[nH]c2c(OC)c1OC [drawing 780 (R91 = H)]	–	3.7	1.05	0.99	1.75	–
CCC(C)C(C(CC(=O)N1CCCC1C(OC)C(C)C(=O)NC(Cc1ccccc1)C(=O)OC)OC)N(C)C(=O)C(NC(=O)C(C(C)C)N(C)C)C(C)C (stereo not shown) [drawing 761 (R42 = -CH3)]	0.03	0.09	–	0.27	0.41	–
CCCO[C@H](C[C@H](C(C)C)N(CCC)C(=O)[C@@H](NC(=O)[C@H]1CCCCN1C)[C@@H](C)CC)c1nc(C(=O)N[C@@H](Cc2ccc(O)cc2)C[C@H](C)C(=O)OCCCN)cs1	–	–	–	–	23	–
CCC(C)C(C(CC(=O)N1CCCC1C(OC)C(C)C(=O)NC(Cc1ccccc1)C(=O)NCC(C)O)OC)N(C)C(=O)C(NC(=O)C(C(C)C)N(C)C)C(C)C (stereo not shown) [drawing 772]	–	–	–	–	–	IC50 ([4]; Table VIII, drug compounds, 72 h, read-out: MCF7 IC50): 2.06 nM; IC50 ([5]; Table VIII, drug compounds, 72 h, read-out: HCT15 IC50): 32.4 nM; IC50 ([1]; Table VIII, drug compounds, 72 h, read-out: N87 IC50): 0.78 nM
CCC(C)C(C(CC(=O)N1CCCC1C(OC)C(C)C(=O)NC(Cc1ccccc1)C(=O)OCCN)OC)N(C)C(=O)C(NC(=O)C(C(C)C)N(C)C)C(C)C (stereo not shown)	0.89	–	–	–	–	–
